The results in this text go back to patent US20110028686A1, “Protein binding miniature proteins” (Yale University, priority 2000, published 2011).

Where “and” joins values, the source holds several entries; their conditions need not be identical. Equal values may be shown once. Read-outs that look alike come from different tables or passages of the source. Peptide text beside a SMILES is read from it. * marks the point of attachment. Fluorescein(5-NHCOCH2) = O=C(C*)Nc1ccc2c(c1)C(=O)OC21c2ccc(O)cc2Oc2cc(O)ccc21

The target in data set [1] is T1, CBP KIX E655A (Mus musculus, UniProt P45481, E655A).
T1 construct: made in house; host or cells: E. coli BL21(DE3) pArg
T1 sequence (P45481 586-665 E655A limits assumed): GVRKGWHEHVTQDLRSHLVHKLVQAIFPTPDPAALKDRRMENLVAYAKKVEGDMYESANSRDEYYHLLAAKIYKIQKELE
The experiment in a line: Equilibrium fluorescence polarization, CBP KIX variant E655A. As to conditions: 25° C. The format is binding. In general terms: Polarisation of emitted light reports the rotation of a fluorescent probe.

In data set [2] the target is T2, HisKIX (His-tagged CBP KIX domain) (Mus musculus, UniProt P45481).
T2 construct: The CBP KIX-coding region (residues 586 to 672) of pGEX-KT KIX 10-672; made in house; host or cells: E. coli BL21(DE3) pArg
T2 sequence (P45481 586-672): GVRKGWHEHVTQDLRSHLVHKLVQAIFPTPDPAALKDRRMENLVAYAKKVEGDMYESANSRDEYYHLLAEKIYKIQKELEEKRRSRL
Put plainly: Equilibrium fluorescence polarization, HisKIX binding. The following applies: 25° C.

Data set [3] concerns the target T3, Carbonic anhydrase II (Homo sapiens, UniProt P00918).
T3 construct: purchased Sigma
The experiment in a line: Fluorescence polarization specificity, carbonic anhydrase II. The format is binding. The following applies: carbonic anhydrase II as target protein; read-out: Kd CA. The text has this: (§1) Given the myriad protein surfaces present in the cell, the utility of molecules that recognize protein surfaces will depend on their ability to interact selectively with the desired protein.

Data set [4] deals with T4, CBP KIX wild type (Mus musculus, UniProt P45481).
T4 construct: made in house; host or cells: E. coli BL21(DE3) pArg
T4 sequence (P45481 586-665 limits assumed): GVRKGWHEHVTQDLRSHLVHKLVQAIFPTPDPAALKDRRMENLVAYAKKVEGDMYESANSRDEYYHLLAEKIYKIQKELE
Put plainly: Equilibrium fluorescence polarization, wild type CBP KIX. The data set is classed as binding. As to conditions: 25° C.

For data set [5], the target named is T5, CBP KIX K606A (Mus musculus, UniProt P45481, K606A).
T5 construct: made in house; host or cells: E. coli BL21(DE3) pArg
T5 sequence (P45481 586-665 K606A limits assumed): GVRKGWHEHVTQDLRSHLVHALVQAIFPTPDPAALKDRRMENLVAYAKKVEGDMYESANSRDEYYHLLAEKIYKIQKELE
Put plainly: Equilibrium fluorescence polarization, CBP KIX variant K606A. The format is binding. The following applies: 25° C.

Data set [6] deals with T6, CBP KIX LL652-3AA (Mus musculus, UniProt P45481, L652A/L653A).
T6 construct: made in house; host or cells: E. coli BL21(DE3) pArg
T6 sequence (P45481 586-665 L652A/L653A): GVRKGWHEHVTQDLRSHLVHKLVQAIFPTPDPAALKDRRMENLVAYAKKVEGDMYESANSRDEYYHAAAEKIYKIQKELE
The experiment in a line: Equilibrium fluorescence polarization, CBP KIX variant LL652-3AA. The format is binding. The following applies: 25° C.

The target of data set [7] is T7, CBP KIX Y650A (Mus musculus, UniProt P45481, Y650A).
T7 construct: made in house; host or cells: E. coli BL21(DE3) pArg
T7 sequence (P45481 586-665 Y650A limits assumed): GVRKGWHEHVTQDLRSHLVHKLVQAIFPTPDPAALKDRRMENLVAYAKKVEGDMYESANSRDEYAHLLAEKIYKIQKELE
The experiment in a line: Equilibrium fluorescence polarization, CBP KIX variant Y650A. The data set is classed as binding. The following applies: 25° C.

Data set [8] has as its target T8, CBP KIX Y658A (Mus musculus, UniProt P45481, Y658A).
T8 construct: made in house; host or cells: E. coli BL21(DE3) pArg
The experiment in a line: Equilibrium fluorescence polarization, CBP KIX variant Y658A. The data set is classed as binding. As to conditions: 25° C.

The target of data set [9] is T9, CBP KIX K662A (Mus musculus, UniProt P45481, K662A).
T9 construct: made in house; host or cells: E. coli BL21(DE3) pArg
T9 sequence (P45481 586-665 K662A limits assumed): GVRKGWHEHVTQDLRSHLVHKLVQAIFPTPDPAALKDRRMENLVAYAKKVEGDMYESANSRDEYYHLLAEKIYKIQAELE
The experiment in a line: Equilibrium fluorescence polarization, CBP KIX variant K662A. The format is binding. As to conditions: 25° C.

Data set [10] has as its target T10, CBP KIX L599A (Mus musculus, UniProt P45481, L599A).
T10 construct: made in house; host or cells: E. coli BL21(DE3) pArg
Put plainly: Equilibrium fluorescence polarization, CBP KIX variant L599A. The data set is classed as binding. As to conditions: 25° C.

Data set [11] has as its target T11, CBP KIX Q661A (Mus musculus, UniProt P45481, Q661A).
T11 construct: made in house; host or cells: E. coli BL21(DE3) pArg
The experiment in a line: Equilibrium fluorescence polarization, CBP KIX variant Q661A. The data set is classed as binding. The following applies: 25° C.

Data set [12] addresses T12, CBP KIX I657A (Mus musculus, UniProt P45481, I657A).
T12 construct: made in house; host or cells: E. coli BL21(DE3) pArg
Put plainly: Equilibrium fluorescence polarization, CBP KIX variant I657A. The data set is classed as binding. As to conditions: 25° C.

Data set [13] concerns the target T13, Calmodulin (Homo sapiens, UniProt P0DP23).
T13 construct: purchased Sigma
The experiment in a line: Fluorescence polarization specificity, calmodulin. The data set is classed as binding. The following applies: calmodulin as target protein; read-out: Kd CalM.
Description: as §1

The target in data set [14] is T14, GST-KIX (Mus musculus, UniProt P45481).
T14 construct: pGST-ΔKIX(588-683) (a gift from Jennifer Nyborg); made in house; host or cells: E. coli BL21(DE3) pArg
T14 sequence (P45481 588-683): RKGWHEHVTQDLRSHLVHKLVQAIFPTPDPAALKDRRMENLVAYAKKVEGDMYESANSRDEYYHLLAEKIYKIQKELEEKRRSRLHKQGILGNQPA
Put plainly: Fluorescence polarization, wild type GST-KIX. The data set is classed as binding.

Data set [15] deals with T15, CBP KIX L603A (Mus musculus, UniProt P45481, L603A).
T15 construct: made in house; host or cells: E. coli BL21(DE3) pArg
T15 sequence (P45481 586-665 L603A limits assumed): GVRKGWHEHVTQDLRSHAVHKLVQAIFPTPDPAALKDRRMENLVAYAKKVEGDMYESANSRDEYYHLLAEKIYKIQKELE
The experiment in a line: Equilibrium fluorescence polarization, CBP KIX variant L603A. The format is binding. As to conditions: 25° C.

Data set [16] concerns the target T16, CBP KIX I660A (Mus musculus, UniProt P45481, I660A).
T16 construct: made in house; host or cells: E. coli BL21(DE3) pArg
Put plainly: Equilibrium fluorescence polarization, CBP KIX variant I660A. As to conditions: 25° C. The data set is classed as binding.

In data set [17] the target is T17, CBP KIX Y658F (Mus musculus, UniProt P45481, Y658F).
T17 construct: made in house; host or cells: E. coli BL21(DE3) pArg
T17 sequence (P45481 586-665 Y658F limits assumed): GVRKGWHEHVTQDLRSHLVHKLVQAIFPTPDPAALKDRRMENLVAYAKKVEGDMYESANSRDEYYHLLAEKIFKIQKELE
The experiment in a line: Equilibrium fluorescence polarization, CBP KIX variant Y658F. The data set is classed as binding. The following applies: 25° C.

In data set [18] the target is Bcl-2 (Homo sapiens, UniProt P10415). Put plainly: Bcl-2 binding by fluorescence emission of fluorescein-labeled peptide. As to conditions: read-out: Kd for binding to Bcl-2, 4° C., PBS.
Sequence of Bcl-2 (P10415 1-205): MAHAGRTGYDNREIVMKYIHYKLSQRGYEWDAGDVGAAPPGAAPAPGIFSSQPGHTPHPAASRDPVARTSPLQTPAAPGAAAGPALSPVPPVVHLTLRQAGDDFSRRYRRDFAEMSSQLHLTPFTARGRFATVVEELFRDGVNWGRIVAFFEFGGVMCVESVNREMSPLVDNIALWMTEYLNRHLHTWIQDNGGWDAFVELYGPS
Data set [19] deals with T3, Carbonic anhydrase II. Put plainly: Carbonic anhydrase II binding by fluorescence emission. As to conditions: PBS.
The nature of data set [20]: Circular dichroism thermal denaturation. The format is physicochemical. The following applies: far UV circular dichroism at 222 nm. Here is the method: Spectra were acquired in 0.5×PBS at 25° C. using a Aviv Model 62DS spectrometer. […] Each data set represents the average of 10 scans. Spectra were background corrected but were not smoothed. (b) Temperature dependence of the CD spectrum of pP53-05. ΘMRE is in units of deg·cm^2·dmol^−1.
Circular dichroism spectra were recorded in PBS on an Aviv 202 CD Spectrometer and were background corrected but not smoothed. Wavelength scans were performed at 4° C. between 200 and 260 nm at 1 nm intervals with a recording time of five seconds at each interval. Bak (72-94), 4099, 4100, 4101, 4102 were used at concentrations of 0.028 mM, 0.0069 mM, 0.0119 mM, 0.014 mM and 0.016 mM respectively. Thermal denaturation curves were measured at 222 nm between 4-98° C. with 2° C. steps and one minute equilibration at each temperature. Peptides were used at the highest concentrations used for the wavelength scans described above. Mean residue elliptcity and percent helicity were calculated from the value at 222 nm after background correction.

In data set [21] the target is T13, Calmodulin. The experiment in a line: Calmodulin binding by fluorescence emission.

T11 sequence (P45481 586-665 Q661A limits assumed): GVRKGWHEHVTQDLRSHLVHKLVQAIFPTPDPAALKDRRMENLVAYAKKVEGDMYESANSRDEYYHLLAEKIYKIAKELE
T10 sequence (P45481 586-665 L599A limits assumed): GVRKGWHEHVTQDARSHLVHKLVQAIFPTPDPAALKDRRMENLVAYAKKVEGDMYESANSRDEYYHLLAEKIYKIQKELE
T12 sequence (P45481 586-665 I657A limits assumed): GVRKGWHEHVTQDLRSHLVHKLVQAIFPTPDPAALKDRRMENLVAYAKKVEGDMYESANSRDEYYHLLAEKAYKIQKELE
T8 sequence (P45481 586-665 Y658A limits assumed): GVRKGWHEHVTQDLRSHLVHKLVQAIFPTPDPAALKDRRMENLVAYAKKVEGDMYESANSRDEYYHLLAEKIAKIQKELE
T16 sequence (P45481 586-665 I660A limits assumed): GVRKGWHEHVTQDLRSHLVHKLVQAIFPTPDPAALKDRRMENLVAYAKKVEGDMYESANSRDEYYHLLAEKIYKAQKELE

In the case of `CC[C@H](C)[C@H](NC(=O)CN)C(=O)N[C@@H](CO)C(=O)N[C@@H](Cc1c[nH]c2ccccc12)C(=O)N1CCC[C@H]1C(=O)N[C@H](C(=O)N[C@@H](Cc1ccccc1)C(=O)N[C@@H](CCC(=O)O)C(=O)NCC(=O)N[C@@H](CC(=O)O)C(=O)N[C@@H](CC(=O)O)C(=O)N[C@@H](C)C(=O)N1CCC[C@H]1C(=O)N[C@H](C(=O)N[C@@H](CCCNC(=N)N)C(=O)N[C@@H](CCCNC(=N)N)C(=O)N[C@@H](CC(C)C)C(=O)N[C@@H](CO)C(=O)N[C@@H](Cc1ccccc1)C(=O)N[C@@H](Cc1ccccc1)C(=O)N[C@@H](Cc1ccc(O)cc1)C(=O)N[C@H](C(=O)N[C@@H](CC(C)C)C(=O)N[C@@H](CC(C)C)C(=O)N[C@@H](CC(=O)O)C(=O)N[C@@H](CC(C)C)C(=O)N[C@@H](Cc1ccc(O)cc1)C(=O)N[C@@H](CC(C)C)C(=O)N[C@@H](CC(=O)O)C(=O)N[C@@H](C)C(=O)N1CCC[C@H]1C(=O)NCC(=O)N[C@H](C(=O)N[C@@H](CSCC(=O)Nc1ccc2c(c1)C(=O)OC21c2ccc(O)cc2Oc2cc(O)ccc21)C(N)=O)C(C)C)[C@@H](C)CC)C(C)C)[C@@H](C)O` [PPKID6] (H-GISWPTFEGDDAPVRRLSFFYILLDLYLDAPGVC(Fluorescein(5-NHCOCH2))-NH2), the Kd in data set [1] was 1700 ± 200 nM; in [2] (fluorescein-labeled phosphopeptide, read-out: Kd HisKIX, phosphorylated peptide (P)), 624 ± 49 nM; in [2] (label shows phosphorylated (P) or unphosphorylated (U) form, read-out: Kd HisKIX), 1500 to 3100 nM and 1500 nM; in data set [3] it was 79000 ± 13000 nM; in data set [4], 540 ± 60 nM; in data set [5] it was 1200 ± 100 nM. The equilibrium dissociation constant (Kd) in data set [6] came to 140 ± 20 nM; in data set [7], 1300 ± 200 nM; in [8] it was 1700 ± 400 nM; in data set [9] it was 1800 ± 300 nM; in data set [10] it was 3300 ± 300 nM; in data set [11], 410 ± 60 nM. The dissociation constant (Kd) in data set [12] was 3600 ± 400 nM; in data set [13], no less than 168000 nM; in [14], 714 ± 128 nM; in [15], 2500 ± 300 nM; in data set [16], 6100 ± 700 nM; in data set [17], 2800 ± 400 nM.
For the compound `CC[C@H](C)[C@H](NC(=O)[C@H](CC(C)C)NC(=O)[C@H](CC(=O)O)NC(=O)[C@H](CCC(=O)O)NC(=O)[C@@H](NC(=O)[C@@H]1CCCN1C(=O)[C@H](C)NC(=O)[C@H](CC(=O)O)NC(=O)[C@H](CC(=O)O)NC(=O)CNC(=O)[C@@H]1CCCN1C(=O)[C@H](Cc1ccc(O)cc1)NC(=O)[C@@H](NC(=O)[C@@H]1CCCN1C(=O)[C@H](CCC(N)=O)NC(=O)[C@H](CO)NC(=O)[C@@H]1CCCN1C(=O)CN)[C@@H](C)O)C(C)C)C(=O)N[C@@H](CCCNC(=N)N)C(=O)N[C@@H](Cc1ccccc1)C(=O)N[C@H](C(=O)NCC(=O)N[C@@H](CCCNC(=N)N)C(=O)N[C@@H](CC(C)C)C(=O)N[C@@H](CC(C)C)C(=O)N[C@@H](C)C(=O)N[C@@H](Cc1ccc(O)cc1)C(=O)N[C@@H](Cc1ccccc1)C(=O)NCC(=O)N[C@@H](CC(=O)O)C(=O)N[C@H](C(=O)N[C@H](C(=O)N[C@@H](CC(N)=O)C(=O)N[C@@H](CCCNC(=N)N)C(=O)N[C@@H](CCCNC(=N)N)C(N)=O)[C@@H](C)CC)[C@@H](C)O)C(C)C` [p4099] (H-GPSQPTYPGDDAPVEDLIRFVGRLLAYFGDTINRR-NH2), the Kd in data set [18] came to 352 ± 33 nM; in [19], 8600 nM; in data set [21] it was 25000 ± 4000 nM. The “Tm, cooperative thermal melt” value in data set [20] is “approximately 65 °C”.

For orientation: Kd means the equilibrium constant for the complex coming apart.
